Test results reported in patent US8048916B2, “Ester compound and use thereof” (Sumitomo Chemical Company, Limited, priority 2007, dated 2011).

The molecules below were run on houseflies (assay: Test Example 2: knock-down test on houseflies in a 70 cm cubic chamber (KT50)). Conditions: 0.00625% (w/v), 0.7 ml sprayed into 70 cm cubic chamber, knock-down counted until 10 minutes.
Format: in vivo, housefly
Method: Each of the compositions of the compounds (1) and (2) of the present invention obtained by Formulation Example 7 was diluted with mixed liquid of dichloromethane/deodorized kerosine=1/9 (w/w) so that the effective ingredient concentration became 0.00625% (w/v) to prepare a test solution.
Ten houseflies were released in a cubic chamber having a side of 70 cm to spray 0.7 ml of the above-mentioned oil-based preparation into the chamber through a small window on the side face of the chamber at a spray pressure of 0.9 kg/cm^2 with a spray gun. Then, the number of houseflies knocked down was counted with time until 10 minutes later (two repetitions each). The effect was evaluated with 4 grades of ⊙ to × as described below by means of a KT50 value calculated from the obtained results.
As a control test, the similar tests were performed by using as comparative reference compounds 2,3,5,6-tetrafluoro-4-methoxymethylbenzyl (1R,3S)-3-((E)-2-cyano-2-fluorovinyl)-2,2-dimethylcyclopropanecarboxylate

SMILES	Efficacy (grade by KT50 value)
COCc1c(F)c(F)c(COC(=O)[C@@H]2C(C=C(F)C#N)C2(C)C)c(F)c1F (stereo in doubt) [control compound (B), 2,3,5,6-tetrafluoro-4-methoxymethylbenzyl (1R,3S)-3-((Z)-2-cyano-2-fluorovinyl)-2,2-dimethylcyclopropanecarboxylate]	Δ (KT50 value is 3 minutes or more and less than 4 minutes)
COCc1c(F)c(F)c(COC(=O)[C@@H]2C(C=C(F)C#N)C2(C)C)c(F)c1F (stereo in doubt) [control compound (A), 2,3,5,6-tetrafluoro-4-methoxymethylbenzyl (1R,3S)-3-((E)-2-cyano-2-fluorovinyl)-2,2-dimethylcyclopropanecarboxylate]	X (KT50 value is 4 minutes or more)
COCc1c(F)c(F)c(COC(=O)[C@@H]2C(/C=C(\Cl)C#N)C2(C)C)c(F)c1F (stereo in doubt) [compound (1), 2,3,5,6-tetrafluoro-4-methoxymethylbenzyl (1R,3S)-3-((Z)-2-chloro-2-cyanovinyl)-2,2-dimethylcyclopropanecarboxylate]	◯ (KT50 value is 2 minutes or more and less than 3 minutes)
COCc1c(F)c(F)c(COC(=O)[C@@H]2C(/C=C(/Cl)C#N)C2(C)C)c(F)c1F (stereo in doubt) [compound (2), 2,3,5,6-tetrafluoro-4-methoxymethylbenzyl (1R,3S)-3-((E)-2-chloro-2-cyanovinyl)-2,2-dimethylcyclopropanecarboxylate]	⊙ (KT50 value is less than 2 minutes)
